{"source": "patent US11766440B1", "about": "“Methods for the prevention and treatment of hearing loss” (Ting Therapeutics LLC, priority 2020, dated 2023)", "key": {"JAK2": {"biological_target": "JAK2 (Homo sapiens, UniProt O60674)", "sequence (O60674 whole entry, species assumed)": "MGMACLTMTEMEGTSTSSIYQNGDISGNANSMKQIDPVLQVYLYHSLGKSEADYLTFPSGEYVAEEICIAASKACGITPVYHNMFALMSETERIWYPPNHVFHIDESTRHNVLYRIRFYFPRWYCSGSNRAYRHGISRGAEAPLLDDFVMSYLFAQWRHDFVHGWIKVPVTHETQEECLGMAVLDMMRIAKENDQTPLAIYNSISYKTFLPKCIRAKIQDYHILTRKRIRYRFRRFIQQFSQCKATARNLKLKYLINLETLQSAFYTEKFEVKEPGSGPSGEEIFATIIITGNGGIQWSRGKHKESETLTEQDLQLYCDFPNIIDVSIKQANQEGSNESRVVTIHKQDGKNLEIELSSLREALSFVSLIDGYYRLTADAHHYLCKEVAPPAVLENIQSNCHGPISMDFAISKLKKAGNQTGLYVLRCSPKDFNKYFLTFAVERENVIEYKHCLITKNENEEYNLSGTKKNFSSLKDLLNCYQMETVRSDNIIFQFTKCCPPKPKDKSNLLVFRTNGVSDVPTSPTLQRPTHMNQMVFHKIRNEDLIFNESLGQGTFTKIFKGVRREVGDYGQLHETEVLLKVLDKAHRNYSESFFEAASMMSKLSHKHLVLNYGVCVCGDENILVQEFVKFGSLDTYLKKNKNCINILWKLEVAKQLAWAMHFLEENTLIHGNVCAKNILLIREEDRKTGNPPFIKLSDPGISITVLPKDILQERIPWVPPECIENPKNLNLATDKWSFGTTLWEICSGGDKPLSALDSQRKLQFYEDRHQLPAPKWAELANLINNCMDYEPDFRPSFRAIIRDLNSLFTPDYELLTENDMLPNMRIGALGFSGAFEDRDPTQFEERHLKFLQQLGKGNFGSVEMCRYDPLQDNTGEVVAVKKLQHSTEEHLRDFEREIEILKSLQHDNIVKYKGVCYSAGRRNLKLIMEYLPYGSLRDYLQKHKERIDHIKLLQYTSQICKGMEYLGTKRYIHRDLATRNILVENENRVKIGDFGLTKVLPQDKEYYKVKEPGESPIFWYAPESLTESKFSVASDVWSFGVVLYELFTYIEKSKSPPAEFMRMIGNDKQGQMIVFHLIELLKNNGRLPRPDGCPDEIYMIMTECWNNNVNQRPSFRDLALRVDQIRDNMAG", "settings": "cited from earlier work"}, "JAK1": {"biological_target": "JAK1 (Homo sapiens, UniProt P23458)", "sequence (P23458 whole entry, species assumed)": "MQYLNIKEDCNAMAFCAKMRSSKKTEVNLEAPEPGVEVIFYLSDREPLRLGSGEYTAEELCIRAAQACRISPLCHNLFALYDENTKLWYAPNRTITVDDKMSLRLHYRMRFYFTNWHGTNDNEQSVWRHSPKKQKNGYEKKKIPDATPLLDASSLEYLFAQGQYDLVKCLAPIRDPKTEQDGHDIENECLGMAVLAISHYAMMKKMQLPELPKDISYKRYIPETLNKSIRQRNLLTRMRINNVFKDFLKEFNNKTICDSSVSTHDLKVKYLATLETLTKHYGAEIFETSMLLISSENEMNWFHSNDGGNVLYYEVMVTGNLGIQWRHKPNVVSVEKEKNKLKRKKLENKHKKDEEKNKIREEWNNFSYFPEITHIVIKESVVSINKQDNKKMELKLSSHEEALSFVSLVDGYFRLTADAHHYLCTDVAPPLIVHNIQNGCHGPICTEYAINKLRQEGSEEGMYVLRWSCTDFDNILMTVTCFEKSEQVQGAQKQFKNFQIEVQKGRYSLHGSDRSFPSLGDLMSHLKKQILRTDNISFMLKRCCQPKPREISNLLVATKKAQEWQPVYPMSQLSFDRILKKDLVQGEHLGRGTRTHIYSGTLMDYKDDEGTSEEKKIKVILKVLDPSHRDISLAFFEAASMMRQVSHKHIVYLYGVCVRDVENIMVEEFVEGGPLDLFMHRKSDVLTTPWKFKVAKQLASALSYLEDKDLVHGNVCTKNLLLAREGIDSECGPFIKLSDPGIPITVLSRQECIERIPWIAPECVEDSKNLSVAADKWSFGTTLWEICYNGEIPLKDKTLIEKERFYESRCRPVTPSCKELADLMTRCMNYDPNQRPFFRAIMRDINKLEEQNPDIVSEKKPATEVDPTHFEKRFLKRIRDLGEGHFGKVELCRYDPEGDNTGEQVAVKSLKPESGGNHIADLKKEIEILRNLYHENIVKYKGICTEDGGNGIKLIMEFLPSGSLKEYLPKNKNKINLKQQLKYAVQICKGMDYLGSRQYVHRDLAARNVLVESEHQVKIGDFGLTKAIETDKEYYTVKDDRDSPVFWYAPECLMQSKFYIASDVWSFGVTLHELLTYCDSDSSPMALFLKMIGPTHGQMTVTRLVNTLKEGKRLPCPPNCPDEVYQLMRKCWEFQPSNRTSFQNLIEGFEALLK", "settings": "cited from earlier work"}, "JAK3": {"biological_target": "T1, JAK3 (Homo sapiens, UniProt P52333)", "T1 sequence (P52333 1-1124)": "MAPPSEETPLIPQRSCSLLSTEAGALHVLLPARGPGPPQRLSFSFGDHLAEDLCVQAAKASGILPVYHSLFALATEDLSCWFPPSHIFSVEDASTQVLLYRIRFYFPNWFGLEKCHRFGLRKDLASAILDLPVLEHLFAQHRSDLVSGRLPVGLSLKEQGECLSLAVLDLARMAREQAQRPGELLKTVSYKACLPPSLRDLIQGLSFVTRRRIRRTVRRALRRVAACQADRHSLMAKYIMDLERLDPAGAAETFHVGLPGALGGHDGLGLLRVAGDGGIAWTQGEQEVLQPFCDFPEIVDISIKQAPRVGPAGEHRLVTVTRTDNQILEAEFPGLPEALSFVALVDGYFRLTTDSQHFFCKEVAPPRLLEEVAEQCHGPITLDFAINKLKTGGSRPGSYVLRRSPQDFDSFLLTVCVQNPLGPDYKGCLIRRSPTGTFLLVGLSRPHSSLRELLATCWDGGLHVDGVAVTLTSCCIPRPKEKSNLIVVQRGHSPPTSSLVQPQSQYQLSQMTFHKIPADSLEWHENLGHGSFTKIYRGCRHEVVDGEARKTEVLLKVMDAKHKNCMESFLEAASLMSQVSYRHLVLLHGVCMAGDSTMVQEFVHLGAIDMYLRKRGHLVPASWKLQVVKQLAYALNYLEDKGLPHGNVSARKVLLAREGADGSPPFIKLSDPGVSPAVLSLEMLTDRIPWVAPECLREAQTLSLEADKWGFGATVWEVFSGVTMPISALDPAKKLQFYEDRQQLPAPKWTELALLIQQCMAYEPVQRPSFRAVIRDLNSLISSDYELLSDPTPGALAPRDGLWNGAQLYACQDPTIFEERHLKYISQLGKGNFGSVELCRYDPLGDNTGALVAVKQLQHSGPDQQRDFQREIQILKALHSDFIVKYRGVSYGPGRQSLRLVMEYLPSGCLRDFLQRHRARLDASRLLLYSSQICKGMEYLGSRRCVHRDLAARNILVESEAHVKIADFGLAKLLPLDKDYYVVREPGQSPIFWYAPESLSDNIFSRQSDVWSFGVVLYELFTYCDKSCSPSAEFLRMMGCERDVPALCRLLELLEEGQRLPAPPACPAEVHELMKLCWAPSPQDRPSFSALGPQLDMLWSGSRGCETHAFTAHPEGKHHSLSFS", "settings": "cited from earlier work"}, "TYK2": {"biological_target": "TYK2 (Homo sapiens, UniProt P29597)", "sequence (P29597 whole entry)": "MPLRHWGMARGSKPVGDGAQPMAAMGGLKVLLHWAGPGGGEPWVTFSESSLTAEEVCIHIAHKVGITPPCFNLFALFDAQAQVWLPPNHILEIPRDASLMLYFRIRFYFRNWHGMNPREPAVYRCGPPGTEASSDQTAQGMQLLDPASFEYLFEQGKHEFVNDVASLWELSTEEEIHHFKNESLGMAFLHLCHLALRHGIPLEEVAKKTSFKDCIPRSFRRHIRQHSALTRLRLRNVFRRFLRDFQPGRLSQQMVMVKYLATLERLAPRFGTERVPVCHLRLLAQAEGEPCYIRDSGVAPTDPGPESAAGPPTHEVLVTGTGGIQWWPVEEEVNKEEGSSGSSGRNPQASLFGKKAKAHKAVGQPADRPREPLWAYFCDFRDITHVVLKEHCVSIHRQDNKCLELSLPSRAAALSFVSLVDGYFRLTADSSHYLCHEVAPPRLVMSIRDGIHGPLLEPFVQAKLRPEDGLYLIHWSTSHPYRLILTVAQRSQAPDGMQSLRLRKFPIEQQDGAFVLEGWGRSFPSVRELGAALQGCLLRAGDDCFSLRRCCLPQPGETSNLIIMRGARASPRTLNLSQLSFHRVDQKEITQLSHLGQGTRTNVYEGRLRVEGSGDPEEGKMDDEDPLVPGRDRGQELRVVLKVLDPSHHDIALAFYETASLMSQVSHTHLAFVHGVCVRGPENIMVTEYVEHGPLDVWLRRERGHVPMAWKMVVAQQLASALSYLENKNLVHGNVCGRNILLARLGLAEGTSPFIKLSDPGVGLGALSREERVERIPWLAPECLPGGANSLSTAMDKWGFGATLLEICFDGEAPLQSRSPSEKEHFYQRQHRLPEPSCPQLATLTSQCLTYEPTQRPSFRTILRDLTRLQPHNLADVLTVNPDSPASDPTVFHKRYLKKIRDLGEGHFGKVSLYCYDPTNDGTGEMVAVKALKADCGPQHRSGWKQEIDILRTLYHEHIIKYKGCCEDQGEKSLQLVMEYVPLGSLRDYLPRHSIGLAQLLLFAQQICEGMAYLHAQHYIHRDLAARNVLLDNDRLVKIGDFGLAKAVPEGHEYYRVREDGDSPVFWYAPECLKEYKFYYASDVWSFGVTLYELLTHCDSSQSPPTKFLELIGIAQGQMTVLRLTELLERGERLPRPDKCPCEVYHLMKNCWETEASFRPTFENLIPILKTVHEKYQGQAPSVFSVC", "settings": "cited from earlier work"}, "[1]": {"tested_on": "outer hair cells of cochlear explants of P3 FVB mice", "test": "Outer hair cell survival in whole-mount cochlear explants treated with aminoglycosides", "assay_type": "cell-based, mouse", "description": "A) Representative confocal images of the middle turn of whole-mount cochlear explants from P3 FVB mice treated with medium alone, […] gentamicin, 0.2 μM Momelotinib and […] gentamicin for 24 h. […] HCs are labeled with phalloidin. […] (Mann-Whitney U Test, *P<0.05, **P<0.01) shown in a micromolar concentration.\nNow referring to FIG. 2A-B, Momelotinib protects from aminoglycoside toxicity in cochlear explants of P3 FVB mice. FVB mice were bred in the Creighton University animal facility. Procedures were approved by the IACUC committee of the Creighton University. 2A) Inner ears were collected from the post-natal day 3 (P3) FVB mice and transferred onto a filter (Millicell, PICM03050; Millipore) soaked in culturing medium. The filter was placed in 6-well culture plates with 1.2 mL medium outside the filter. The culturing medium is DMEM (10565-018; gibco) with 1% FBS (16000-044; gibco), 500 μL ampicillin (A5354; Sigma), 100 μL N-2 supplement (17502-048, gibco) and 100 μL B-27 supplement (17504-044, gibco). After culturing for 24 h at 37° C. in 5% CO2, 1 mL culturing medium with MMB at 0.2 μM, […] MMB alone or without MMB and added both inside and outside the filter to preincubate for another 1 h before adding gentamicin solution. A 50 μg/mL gentamicin (G1397, Sigma) was chosen to induce around 35% hair cell death after incubation for 24 h at 37° C. For compound CYT-387 or MMB (A10263, AdooQ). The procedures were performed under sterile condition in the culture hood. Cochleae were then fixed with 4% PFA for 30 min and stained with Alexa Fluor 555 phalloidin in to determine the survival rate of the hair cells. All the cochleae images were taken with Zeiss 700 confocal microscopy. […] The survival OHCs were then normalized to 100 μm length to further compare between different experimental conditions. 2B) OHC survival (OHC number per 100 μm length of cochlear middle turn) after treatment with Momelotinib at 0.0016, 0.008, 0.04, 0.2, 1.0, 5.0, 10.0 and 20.0 μM for 1 hour and co-incubated with 100 μM GM for 1 hour, or co-incubated with 600 μM kanamycin (K0254, Sigma) for 1 hour. […]"}, "[2]": {"tested_on": "zebrafish lateral line neuromast hair cells", "test": "Zebrafish lateral line neuromast hair cell counts after aminoglycoside", "assay_type": "in vivo, Danio rerio", "settings": "5dpf larvae, 1 hour pre-incubation 0.002-13.3 μM", "description": ". Each treatment was pretreated with MMB at the prescribed doses prior to co-treatment with the aminoglycoside. Control animal were treated with DMSO (−) or KM or GM alone (+) Animals were then fixed and immunostained for GFP and otoferlin. Quantification was done by assessing three neuromasts in the same anatomic location of each animal (n=5). The data is plotted as mean+SD. Statistical testing was done with One-way ANOVA and Dunnett post-hoc test (*P<0.05, **P<0.01,***P<0.001).\nFIG. 4A-B show Fedratinib (FED) protected zebrafish mechanosensory hair cells against kanamycin (KM) in vivo. 5dpf Tg(Brn3c:mGFP) larvae were used for the experiments. Each treatment was pretreated FED at the prescribed doses prior to co-treatment with the aminoglycoside. […] Control animal were treated with DMSO (−) or KM alone (+) Animals were then fixed and immunostained for GFP and otoferlin. Quantification was done by assessing three neuromasts in the same anatomic location of each animal (n=5). […]\nThese two markers were used to detect and count neuromast HCs to reduce the chances of missing some of the HCs after the treatment since we previously noticed that incubation with the compounds can affect GFP expression more difficult to detect under a fluorescence microscope (26). […] Compounds were then evaluated on efficiency and potency, with the top-rated compounds showing high protection at lower concentrations. […]"}, "[3]": {"test": "14-day oral toxicity and auditory brainstem response (ABR) thresholds in mice", "assay_type": "in vivo, C57BL/6 mice", "description": "Auditory brainstem response (ABR) thresholds were recorded for 3 frequencies (8 kHz, 16 kHz, and 32 kHz) before and after a 14-day MMB treatment protocol. […] Statistical analysis was done with repeated measures ANOVA between groups.\n4-week-old C57BL/6 mice obtained from The Jackson Laboratory were used, with a mix of males and females across experiments. Mice were administered a 14-day Momelotinib treatment protocol. Auditory Brainstem Response thresholds were recorded at 8 kHz, 16 kHz, and 32 kHz for a baseline sample of mice and the mice administered Momelotinib."}, "EGFR kinase": {"biological_target": "EGFR kinase (Homo sapiens, UniProt P00533)", "sequence (P00533 25-1210)": "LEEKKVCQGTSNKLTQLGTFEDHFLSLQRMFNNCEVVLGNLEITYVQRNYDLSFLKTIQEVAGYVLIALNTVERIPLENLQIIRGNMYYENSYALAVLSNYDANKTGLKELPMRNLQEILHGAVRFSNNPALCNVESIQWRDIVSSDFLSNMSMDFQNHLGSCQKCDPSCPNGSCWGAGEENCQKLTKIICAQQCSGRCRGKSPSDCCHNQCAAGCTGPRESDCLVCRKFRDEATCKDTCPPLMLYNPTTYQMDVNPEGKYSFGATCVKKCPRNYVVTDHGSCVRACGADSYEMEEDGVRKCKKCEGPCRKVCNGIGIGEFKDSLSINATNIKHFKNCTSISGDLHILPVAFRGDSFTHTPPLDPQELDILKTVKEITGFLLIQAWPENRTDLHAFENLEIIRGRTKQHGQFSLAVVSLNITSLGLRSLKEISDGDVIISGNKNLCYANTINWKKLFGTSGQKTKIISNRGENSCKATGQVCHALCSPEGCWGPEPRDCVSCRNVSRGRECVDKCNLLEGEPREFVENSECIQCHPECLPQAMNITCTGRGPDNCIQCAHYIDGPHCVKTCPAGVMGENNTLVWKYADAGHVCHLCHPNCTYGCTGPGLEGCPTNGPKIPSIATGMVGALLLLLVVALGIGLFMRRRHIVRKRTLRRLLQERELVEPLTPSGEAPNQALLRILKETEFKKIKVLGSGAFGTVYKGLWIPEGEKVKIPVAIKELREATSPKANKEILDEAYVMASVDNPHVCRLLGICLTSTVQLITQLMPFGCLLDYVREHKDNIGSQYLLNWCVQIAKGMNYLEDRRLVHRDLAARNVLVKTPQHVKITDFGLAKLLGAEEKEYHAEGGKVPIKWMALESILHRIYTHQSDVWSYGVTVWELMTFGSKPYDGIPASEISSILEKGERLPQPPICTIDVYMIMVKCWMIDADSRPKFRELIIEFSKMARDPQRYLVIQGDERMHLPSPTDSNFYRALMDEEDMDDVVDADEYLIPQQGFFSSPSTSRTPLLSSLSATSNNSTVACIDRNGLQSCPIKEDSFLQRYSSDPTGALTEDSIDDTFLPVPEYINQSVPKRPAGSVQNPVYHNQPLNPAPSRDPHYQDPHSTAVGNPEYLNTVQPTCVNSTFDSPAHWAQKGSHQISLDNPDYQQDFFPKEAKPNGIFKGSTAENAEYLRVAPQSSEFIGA", "settings": "measured value; read-out: IC50 in EGFR kinase inhibition assays; cited from earlier work"}, "[4]": {"tested_on": "panel of 38 non-JAK kinases", "settings": "cited from earlier work"}}, "note": "Structures can show the parent of a compound that is named as a salt. Where two headings read alike, the source gives them in different places.", "data": [{"molecule": "N#Cc1ccc(COc2ccc(-c3cccc4nc(NC(=O)C5CC5)nn34)cc2)cn1", "note": "[GLPG0634 analogue]", "values": [{"measurement": "IC50", "setting": "JAK2; cell-free assay for AZD1480 and AT9283", "result": 28, "unit": "nM"}, {"measurement": "IC50", "setting": "JAK1", "result": 10, "unit": "nM"}, {"measurement": "IC50", "setting": "JAK3", "result": 810, "unit": "nM"}, {"measurement": "IC50", "setting": "TYK2", "result": 116, "unit": "nM"}]}, {"molecule": "COc1cc2ncnc(Nc3ccc(O)cc3)c2cc1OC", "note": "[JANEX-1]", "values": [{"measurement": "activity against JAK2", "setting": "JAK2", "result": "without altering the activity"}, {"measurement": "activity against JAK1", "setting": "JAK1", "result": "without altering the activity"}, {"measurement": "IC50", "setting": "JAK3", "result": 78000, "unit": "nM"}]}, {"molecule": "N#CCNC(=O)c1ccc(-c2ccnc(Nc3ccc(N4CCOCC4)cc3)n2)cc1", "note": "[Momelotinib]", "values": [{"measurement": "toxicity to HCs of compound alone", "setting": "[1]; 0.2 μM Momelotinib alone, cochlear explants", "result": "did not show toxicity"}, {"measurement": "hair cell loss at the middle turn region (phalloidin images)", "setting": "[1]; cotreated with MMB 0.2 μM and gentamicin (GM), 24 h, P3 FVB cochlear explants", "result": "minimal levels of hair cell loss"}, {"measurement": "protection against aminoglycoside-induced hair cell loss (OHC number per 100 μm length of cochlear middle turn)", "setting": "[1]; cotreatment with Momelotinib and gentamicin or kanamycin, n=5 per group", "result": "full protection"}, {"measurement": "protection of mechanosensory hair cells against gentamicin (GM)", "setting": "[2]; then GM 100 uM for 1 hour", "result": "protected"}, {"measurement": "protection of mechanosensory hair cells against kanamycin (KM)", "setting": "[2]; then KM 200 or 300 uM for 1 hour or 150 uM for 6 hours", "result": "protected"}, {"measurement": "inner ear toxicity: ABR thresholds before and after treatment", "setting": "[3]; 8 kHz, 16 kHz and 32 kHz, 14-day Momelotinib protocol", "result": "No differences"}, {"measurement": "general toxicity in vivo", "setting": "[3]; oral, up to 100 mg/kg/day over a 14-day regimen, 4-week-old C57BL/6 mice", "result": "not toxic"}]}, {"molecule": "NC(=O)c1nc(-c2c(F)cccc2Cl)oc1Nc1ccc(C(=O)N2CCOCC2)cc1", "note": "[SAR-20347]", "values": [{"measurement": "IC50", "setting": "JAK1", "result": 23, "unit": "nM"}, {"measurement": "IC50", "setting": "JAK3; cell-free assay for AT9283", "result": 41, "unit": "nM"}, {"measurement": "IC50", "setting": "TYK2", "result": 0.6, "unit": "nM"}]}, {"molecule": "CC1(C)CN(C(=O)c2ccc(-c3cccc4nc(NC(=O)C5CC5)nn34)cc2)C1", "note": "[Solcitinib]", "values": [{"measurement": "selectivity for JAK1 over JAK2", "setting": "JAK2", "result": 11, "unit": "fold"}, {"measurement": "IC50", "setting": "JAK1", "result": "8 to 9", "unit": "nM"}, {"measurement": "selectivity for JAK1 over JAK3", "setting": "JAK3", "result": 55, "unit": "fold"}, {"measurement": "selectivity for JAK1 over TYK2", "setting": "TYK2", "result": 23, "unit": "fold"}]}, {"molecule": "COc1cc2ncnc(Nc3cc(Br)c(O)c(Br)c3)c2cc1OC", "note": "[WHI-P97]", "values": [{"measurement": "IC50", "setting": "EGFR kinase", "result": 2500, "unit": "nM"}]}, {"molecule": "COc1cc2ncnc(Nc3ccc(O)c(Br)c3)c2cc1OC", "note": "[WHI-P154]", "values": [{"measurement": "activity against JAK2", "setting": "JAK2", "result": "no activity"}, {"measurement": "activity against JAK1", "setting": "JAK1", "result": "no activity"}]}, {"molecule": "CC(C)N(CCC(=O)c1ccc2ccccc2c1)Cc1ccccc1", "note": "[ZM 39923 HCl]", "values": [{"measurement": "activity against JAK2", "setting": "JAK2", "result": "almost no activity"}]}, {"molecule": "Oclacitinib maleate", "values": [{"measurement": "inhibition of a panel of 38 non-JAK kinases", "setting": "[4]", "result": "does not inhibit"}]}]}
